Laboratory results reported in patent publication US20160136110A1, “Method for Treating a Neurodegenerative Event” (MAKScientific, LLC, priority 2012, published 2016).

Tests used:
[1] = target: T1, rat and/or human FAAH enzyme (UniProt P97612); assay: FAAH inhibition assay; assay type: biochemical; conditions: rat or human FAAH inhibition assay as in Rahn et al. (2011)
T1 sequence (P97612 1-579): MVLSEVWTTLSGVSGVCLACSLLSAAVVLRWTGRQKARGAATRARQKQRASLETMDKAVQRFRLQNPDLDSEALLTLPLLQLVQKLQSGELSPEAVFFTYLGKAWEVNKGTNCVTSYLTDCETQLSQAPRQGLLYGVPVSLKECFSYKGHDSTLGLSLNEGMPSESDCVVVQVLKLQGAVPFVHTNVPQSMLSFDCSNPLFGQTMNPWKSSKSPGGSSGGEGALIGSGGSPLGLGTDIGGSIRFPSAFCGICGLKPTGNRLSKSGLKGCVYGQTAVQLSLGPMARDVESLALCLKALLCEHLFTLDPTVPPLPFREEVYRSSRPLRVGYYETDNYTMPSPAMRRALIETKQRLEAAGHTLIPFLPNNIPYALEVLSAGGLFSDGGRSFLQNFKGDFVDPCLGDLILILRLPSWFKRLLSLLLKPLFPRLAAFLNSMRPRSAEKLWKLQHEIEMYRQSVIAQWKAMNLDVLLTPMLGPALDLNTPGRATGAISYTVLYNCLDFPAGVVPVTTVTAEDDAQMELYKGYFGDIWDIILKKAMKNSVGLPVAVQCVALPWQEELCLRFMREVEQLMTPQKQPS
Excerpt: Biochem and Behavior 98: 493. […] Particular FAAH inhibitor compounds for use with the invention include those disclosed in the following references: Deng, H (2010) Expert Opin. Drug Discovery 5(10): 961-993 and Blankman (2013) Pharmacol Rev 65:849-871, Seierstad (2008) J. Med. Chem., 51 (23), pp 7327-7343, Ahn (2009) Expert Opin. Drug Discov. 4(7):763-784 and references cited therein.

[2] = system: GDNF; assay: GDNF ELISA of hippocampus after kainic acid injection; assay type: in vivo, rat; conditions: young rats (PND 22), kainic acid i.p. followed by 8 mg/kg i.p., 24 h; vs vehicle, p<0.02; FIG. 1A
Description: (§1) Young rats (PND 22) were injected i.p. with kainic acid (KA), followed immediately by vehicle (veh) or the FAAH inhibitor, Compound 1 (8 mg/kg, i.p.). After 24 h, hippocampus was rapidly dissected, and the homogenates were centrifuged to obtain supernatant for ELISA measures of GDNF) and BDNF. Standard curves were used to convert measures to pg cytokine per mg supernatant protein (±SEM). Unpaired t-tests: GDNF, *p<0.02; BDNF, ***p<0.001.

[3] = system: BDNF; assay: BDNF ELISA of hippocampus after kainic acid injection; assay type: in vivo, rat; conditions: young rats (PND 22), kainic acid i.p. followed by 8 mg/kg i.p., 24 h; vs vehicle, p<0.001; FIG. 1B
Description: as §1

- IC50 [1]: 42 nM
Compound: O=C(CCCOc1ccc(OCc2ccccc2)cc1)C(F)(F)F [Compound 1, 5-(4-(benzyloxy)phenoxy)-1,1,1-trifluoropentan-2-one]
- GDNF levels in hippocampus (ELISA) [2]: enhances GDNF levels
- BDNF levels in hippocampus (ELISA) [3]: protects against excitotoxin-induced reduction in BDNF
